In US11014896B2, “TRPA1 and TRPV4 inhibitors and methods of using the same for organ-specific inflammation and itch” (Duke University, priority 2014, dated 2021):
“Also recorded” adds a separate entry of the source.

Experiments:
IL-6 = assay: Keratinocyte IL-6 expression in UVB-exposed footpad after topical treatment; type: in vivo, mouse; conditions: 5 mM GSK205 topical
Method: (§1) GSK205 topical treatment: A viscous solution of 68% EtOH/5% glycerol plus 1 mM or 5 mM GSK205 (none for control) was applied to hindpaws by rubbing in 20 μL, applied at time-points 1 hour and again 10 min before UV exposure.
Routine procedures were followed as described previously (Chen et al., 2009). Mice were perfused transcardially with 30 mL PBS, followed by 30 mL 4% paraformaldehyde. Tissues, including the L5 DRGs (bilateral), and footpad preparations, were dissected and post-fixed in 4% paraformaldehyde. Tissue blocks were further cryoprotected in 30% sucrose in PBS for 24-48 hours. For mouse TRPV4, keratin-specific antibodies, phospho-ERK, IL-6, IL-1β, CXCL5 and caspase-1, tissue was prepared as frozen blocks and subsequently sectioned on a cryostat. For CD68, CD15 (neutrophil elastase) and CD3, mouse skin was prepared by 2% PFA perfusion. […]

ET1/Edn1 = assay: Edn1 mRNA (qPCR) in UVB-exposed paw-pad epidermis after topical treatment; type: in vivo, mouse; conditions: 5 mM GSK205 topical; 2 hour and 24 hour time-points
Method: as §1

[1] = UVB permeation of paw-pad skin (sunscreen test); set-up: species or system mouse; conditions: topically applied; GSK205 5 mM
Method: The UV LED was powered with 20 mA of current, resulting in 500 μW of optical power in a circular focal spot 1.5 mm in diameter, with 70% of the total flux in a 0.5 mm beam radius. The UV optical power transmitted through the sample was detected by a Hamamatsu 5127-66BR UV detector, and the output of the photodetector was measured using a Keithley 236 source measure unit. Next, the foot-pad epidermis of a mouse was measured for UV transmission by placing it on a quartz coverslip and exposure to the UV beam. The vehicle-control group was treated with the alcohol and glycerol solution only. Another control group consisted of a commercially-available SPF100 preparation sunscreen in form of a cream, which was applied similar to the vehicle-control. The data for the GSK205 and sunscreen was normalized to this control data.

TRPV4 [2] = target: T1, TRPV4 (Mus musculus, UniProt Q9EPK8); assay: GSK101-evoked Ca++ transient in 1° MK; type: cell-based; conditions: 5 nM GSK101; GSK205 20 μM
T1 construct: endogenous in cells; host or cells: primary mouse epidermal keratinocytes (1° MK), wild type
Method: (§2) Ca++ imaging of mouse 1° MK in response to chemical activation of TRPV4 was conducted after loading with 2 μM fura2-AM, following a ratiometric Ca2+ imaging protocol with 340/380 nm […] for dual excitation. Ratios of emissions were acquired at 0.5 Hz. ΔR/R0 was determined as the fraction of the increase of a given ratio over baseline ratio, divided by baseline ratio. For stimulation of cells with UVB, where fura-2 was not suitable because of the proximity of stimulation with 340/380 nm and 295 nm, 2 μM fluo4-AM was used instead. Ca++ imaging was carried out at 488 nm excitation, acquisition of emissions at 0.5 Hz, expressed as ΔF/F0. In the custom-built UV optical system, UV LEDs were capped with a ball lens, a transparent optical window in the shape of a hemispherical lens (FIG. 2B). The LED output optical beam focused at 15-20 mm from the lens, with a spot diameter of approximately 1.5-2.0 mm (FIG. 2C). […] The thermal equilibration stage was set for physiological temperature. We confirmed the non-thermal nature of UVB stimulation using the customized 295 nm LED device in a dedicated experiment (FIG. 2D), thus confirming the specific modality of stimulation as UVB.

[3] = tested on: primary mouse keratinocytes (1° MK); assay: UVB-evoked Ca++ signaling in primary mouse keratinocytes (fluo-4 imaging); type: cell-based
Method: Ca++ imaging of 1° MK was conducted following routine procedures. For UVB stimulation, a customized device was built. The system comprised a printed circuit board for electrical interconnects and mechanical support and an ultraviolet light-emitting diode (UV LED).
The operating wavelength was 295 nm (FIG. 2A), with a full-width half-max of 12 nm. The optical power was 500 mW. The focal point was aimed at the plane of the upper surface of the quartz coverslip, which was used to minimize UV absorption along the optical path towards the cells (FIG. 2A-FIG. 2C). The optical intensity at the focal point was estimated to be 150 mW/mm^2.
as §2, with “temperature.” for “temperature. We confirmed the non-thermal nature of UVB stimulation using the customized 295 nm LED device in a dedicated experiment (FIG. 2D), thus confirming the specific modality of stimulation as UVB.”

TRPV4 [4] = target: TRPV4 (Homo sapiens, UniProt Q9HBA0); assay: UVB-evoked Ca++ transient in TRPV4-transfected HEK293T cells; type: cell-based; set-up: expressed in transfected cells; host or cells: HEK293T cells; conditions: pre-exposure to 20 μM GSK205
Sequence of TRPV4 (Homo sapiens, UniProt Q9HBA0) (Q9HBA0 whole entry, species assumed): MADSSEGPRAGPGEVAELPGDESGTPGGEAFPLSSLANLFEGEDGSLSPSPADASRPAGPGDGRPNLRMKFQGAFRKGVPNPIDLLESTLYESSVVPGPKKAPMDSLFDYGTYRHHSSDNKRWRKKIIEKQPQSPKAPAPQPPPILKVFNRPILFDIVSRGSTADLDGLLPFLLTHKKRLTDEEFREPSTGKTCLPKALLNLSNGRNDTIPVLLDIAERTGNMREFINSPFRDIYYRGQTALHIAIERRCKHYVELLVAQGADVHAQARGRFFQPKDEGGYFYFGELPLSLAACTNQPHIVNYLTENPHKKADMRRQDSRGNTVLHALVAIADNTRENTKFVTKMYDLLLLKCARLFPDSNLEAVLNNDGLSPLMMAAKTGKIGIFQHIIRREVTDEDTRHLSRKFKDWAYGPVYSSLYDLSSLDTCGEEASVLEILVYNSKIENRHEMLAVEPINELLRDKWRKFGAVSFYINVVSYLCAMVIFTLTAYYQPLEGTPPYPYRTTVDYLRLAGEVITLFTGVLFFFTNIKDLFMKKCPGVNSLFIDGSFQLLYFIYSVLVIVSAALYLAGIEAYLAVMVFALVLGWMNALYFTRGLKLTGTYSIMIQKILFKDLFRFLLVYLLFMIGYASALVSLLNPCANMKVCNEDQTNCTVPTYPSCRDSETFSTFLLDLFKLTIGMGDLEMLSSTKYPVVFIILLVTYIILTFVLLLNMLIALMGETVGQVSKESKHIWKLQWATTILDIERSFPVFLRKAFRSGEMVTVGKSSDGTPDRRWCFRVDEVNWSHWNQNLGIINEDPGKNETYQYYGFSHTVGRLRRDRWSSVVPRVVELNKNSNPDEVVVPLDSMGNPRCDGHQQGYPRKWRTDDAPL

T1 sequence (Q9EPK8 whole entry): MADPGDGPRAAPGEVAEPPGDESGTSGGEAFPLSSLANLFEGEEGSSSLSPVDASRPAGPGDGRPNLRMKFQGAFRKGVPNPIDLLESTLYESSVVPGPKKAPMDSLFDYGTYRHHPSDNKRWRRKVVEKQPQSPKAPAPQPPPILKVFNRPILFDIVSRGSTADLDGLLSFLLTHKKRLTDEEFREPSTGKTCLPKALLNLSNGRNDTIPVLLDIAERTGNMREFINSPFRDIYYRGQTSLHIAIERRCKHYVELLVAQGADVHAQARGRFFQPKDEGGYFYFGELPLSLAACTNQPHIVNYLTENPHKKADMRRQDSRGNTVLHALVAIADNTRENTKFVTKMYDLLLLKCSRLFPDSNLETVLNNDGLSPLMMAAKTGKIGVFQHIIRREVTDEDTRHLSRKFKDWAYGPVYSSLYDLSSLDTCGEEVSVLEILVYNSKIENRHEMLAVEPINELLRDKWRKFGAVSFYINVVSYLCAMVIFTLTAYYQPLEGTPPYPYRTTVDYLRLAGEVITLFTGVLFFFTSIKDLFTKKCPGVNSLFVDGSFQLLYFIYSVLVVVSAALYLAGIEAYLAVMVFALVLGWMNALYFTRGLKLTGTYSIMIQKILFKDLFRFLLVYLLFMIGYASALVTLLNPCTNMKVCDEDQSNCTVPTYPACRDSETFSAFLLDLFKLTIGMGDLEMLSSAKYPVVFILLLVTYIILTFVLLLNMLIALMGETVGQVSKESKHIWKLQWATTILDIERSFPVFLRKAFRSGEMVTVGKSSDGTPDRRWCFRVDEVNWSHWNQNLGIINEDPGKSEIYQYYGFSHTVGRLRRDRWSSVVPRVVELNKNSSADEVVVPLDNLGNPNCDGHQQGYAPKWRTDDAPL

Q: What does the source list for `CN(CCc1ccc(Nc2nc(-c3cccnc3)cs2)cc1)Cc1ccccc1` [GSK205]?
A: keratinocyte expression of IL-6 in UVB-exposed footpad (IL-6): Comparably significant blocks; also recorded: attenuates keratinocyte expression of IL-6; Edn1 mRNA expression after UVB (ET1/Edn1): unchanged; also recorded: complete lack of this regulation; UVB permeation of paw-pad skin vs. vehicle control [1]: equal UVB permeation; also recorded: absence of a change; GSK101-evoked Ca++ transient (TRPV4 [2]): eliminated; also recorded: completely blocked; UVB-evoked Ca++ signaling (ΔF/F0) ([3]; GSK205 20 μM): very similar response to that of Trpv4−/− 1° MK; also recorded: strongly down-regulated; also recorded: significant attenuation; ET1-augmented, UVB-induced Ca++ transients ([3]; UVB and ET1 co-exposure): greatly diminished; UVB-evoked Ca++ signal in TRPV4-transfected HEK293T cells (TRPV4 [4]): blocked; also recorded: virtually eliminates
